From EP2039683B1, “Vasculostatic agents and methods of use thereof” (Targegen, Inc., priority 2002, dated 2004)

What was measured:
[1] = Cerebral stroke model, permanent middle cerebral artery occlusion; type: in vivo, mice; conditions: 1 mg/kg BW IV 60 min after ligation; for Infarct area in mm^3 (mean ± SEM): twenty four hours later; for % Infarct reduction: versus vehicle of the same study
Procedure: Cerebral strokes were created in mice by permanent ligation of the middle cerebral artery using a cauterizing tool, followed 60 min later by IV injection of either vehicle alone (50% PEG400 in water) or test agents (at 1 mg/kg BW). Twenty four hours later, brains were sectioned and stained using triphenyltetrazolium chloride to delineate viable from infarcted tissue.

histamine as agonist = test: Miles assay, histamine as agonist; type: in vivo, Sprague-Dawley rats; conditions: 1.5 mg/kg; histamine 10 µg/injection site; vehicle 12
Procedure: Sprague-Dawley rats were first injected IV with vehicle alone or test agent, followed by IV injection of Evans blue dye, followed by intradermal injections of saline and VEGF (200 ng/injection site) along both shaved flanks.
The ability of test agents to influence edema induced by agonists other than VEGF was also tested.
The ability of test agent to influence vascular edema was tested as above, except that the ability to block edema was tested using either VEGF or histamine as the agonist (200 ng and 10 µg/injection site, respectively).

IL-2 induced VLS = test: IL-2 induced vascular leak syndrome, organ wet/dry weight; conditions: compound D in the 1 mg/kg range, compound E in the 0.1 mg/kg range; for reduction of VLS in the heart / reduction of VLS in the spleen: 9 injections of murine IL-2 and/or compound over 4 days
Source text: BalbC mice were given 9 injections of the indicated dose of murine IL-2 (in this example formulated in saline with 5% bovine serum albumin) and/or invention compounds over a period of 4 days. Animals were then sacrificed followed by collection, blotting and weighing (wet weight) of heart, lungs, and spleen.
BalbC mice were given 9 injections of the indicated dose of murine IL-2 and/or invention compounds over a period of 4 days. Animals were then sacrificed followed by collection, blotting and weighing (wet weight) of heart, lungs, and spleen.

CTLL2 = test: IL-2 dependent T-cell proliferation, XTT assay; type: cell-based, mouse; conditions: 96 hours, 50 pg human recombinant IL-2
angiogenesis = test: Matrigel plug angiogenesis model, FITC-lectin quantification; type: in vivo, Athymic WeHi (nu/nu) mice; conditions: 10 mg/kg intraperitoneally bid for four days; matrigel with 400 ng/ml bFGF or VEGF
Procedure: FIGURE 13 (omitted) and 14 (omitted) illustrate the effects of invention compounds for their capacity to inhibit angiogenesis in vivo. […] Tumor extracellular matrix infused with the 160 ng of the described growth factors were injected subcutaneously in a Balb/C mouse. The described invention compound was injected daily at the described concentration for 5 days. After 5 days the animals were sacrificed and angiogenesis quantified based on the binding of fluorescently labeled, endothelium specific FITC-lectin. In the graph, compound A is 6,7-bis(4-hydroxyphenyl)-pteridin-4-ylamine sulfate salt.
Referring to FIGURES 13 (omitted) and 14 (omitted), a murine model of angiogenesis was used to screen compounds for their capacity to inhibit angiogenesis. […] In the graph, compound A is 6,7-bis(4-hydroxyphenyl)-pteridin-4-ylamine sulfate salt. Athymic WeHi (nu/nu) mice were first injected with 400; jls of an ice- cold tumor-derived extracellular matrix substrate, matrigel (Becton-Dickinson) infused with 400 ng/ml of bFGF or VEGF (R & D Systems) which rapidly solidifies into a subdermal plug at body temperature. […] Twenty minutes after injection of the lectin, mice were euthanized, matrigel plugs were then extracted, solublized in PBS with mechanical grinding and the fluorescent content of individual plugs was quantified. […]

[2] = Oleic acid induced ARDS lung edema, wet/dry weight; type: in vivo, NIH Swiss mice; conditions: 0.5 mg/kg range; 1.5 mg/kg Oleic Acid intraperitoneal, lungs collected after four hours
Procedure: FIGURE 12 (omitted) illustrates the effects of invention compounds for their capacity to inhibit edema associated with Acute Respiratory Distress Syndrome (ARDS). NIH Swiss mice were given an intraperitoneal injection of 1.5 mg/kg Oleic Acid of (in this example formulated in saline) and/or invention compounds.
NIH Swiss mice were given an intraperitoneal injection of 1.5 mg/kg Oleic Acid of (in this example formulated in saline) and/or invention compounds.

## Oc1nc(O)c2nc(-c3ccccc3)c(-c3ccccc3)nc2n1 [6,7-Diphenyl-pteridine-2,4-diol]
[1]
  Infarct area in mm^3 (mean ± SEM): 20.2 ± 4.19 mm^3
  % Infarct reduction: 52%

## Oc1ncnc2nc(-c3ccccc3)c(-c3ccccc3)nc12 [6,7-Diphenyl-pteridin-4-ol]
Histamine as agonist
  Score with histamine as agonist (scale of 0-12): 4

## Nc1nc(N)c2nc(-c3cccc(O)c3)c(-c3cccc(O)c3)nc2n1.O=S(=O)(O)O [compound E]
IL-2 induced VLS
  reduction of VLS in the heart: > 100%
  reduction of VLS in the spleen: > 100%
  reducing VLS in vivo: 80-100%
CTLL2; in the therapeutic range (< 1pM)
  impact on IL-2 induced T-cell proliferation: no significant impact

## CN(C)S(=O)(=O)c1ccc2c(c1)/C(=C/c1cc3c([nH]1)CCCC3)C(=O)N2 [SU6656, reference compound]
[1]
  Infarct area in mm^3 (mean ± SEM): 24.3 ± 5.3 mm^3
  % Infarct reduction: Not significant

## O=C(O)c1ccccc1C(=O)Nc1ccccc1-c1cc2ccccc2[nH]1 [compound D]
[1]
  Infarct area in mm^3 (mean ± SEM): 15.6 ± 5.16 mm^3
  % Infarct reduction: 63%
IL-2 induced VLS
  reduction of VLS in the heart: > 100%
  reduction of VLS in the spleen: > 100%
  reducing VLS in vivo: 80-100%
CTLL2; in the 1 mg/kg range as printed
  impact on IL-2 induced T-cell proliferation: no significant impact

## O=C(Nc1ccccc1-c1cc2ccccc2[nH]1)c1cc(O)c(O)c(O)c1 [3,4,5-Trihydroxy-N-[2-(1H-indol-2-yl)-phenyl]-benzamide]
Histamine as agonist
  Score with histamine as agonist (scale of 0-12): 7

## Nc1ncnc2nc(-c3ccc(O)cc3)c(-c3ccc(O)cc3)nc12.O=S(=O)(O)O [compound A, 6,7-bis(4-hydroxyphenyl)-pteridin-4-ylamine sulfate salt]
angiogenesis
  inhibition of angiogenesis in vivo: successfully inhibited angiogenesis in vivo

## O=C(Nc1cc2ccccc2[nH]1)c1cc(O)c(O)c(O)c1 [3,4,5-Trihydroxy-N-(1H-indol-2-yl)-benzamide]
Histamine as agonist
  Score with histamine as agonist (scale of 0-12): 7

## Nc1ncnc2nc(-c3ccc(O)c(O)c3)c(-c3ccc(O)c(O)c3)nc12 [compound F, 4-[4-amino-6-(3,4-dihydroxyphenyl)pteridin-7-yl]benzene-1,2-diol]
[2]
  reduction of ARDS-induced edema: > 100%
